Laboratory results reported in US11541107B2, “Peptides and T cells for use in immunotherapeutic treatment of various cancers” (Immatics Biotechnologies GmbH, priority 2015, dated 2023).

What was measured:
HLA-A*02 = HLA-A*02 (Homo sapiens, UniProt P04439, D140Y/D185E/D98H/E176V/E277Q/G131W/G231S/I119V/I121R/I166T/I218V/L300P/N151K/N90K/P208A/P217A/Q86G/Q94H/R138H/R169H); experiment: MHC binding assay, UV-ligand exchange with beta2m ELISA, HLA-A*02; conditions: binding to HLA-A*02 ranged by peptide exchange yield (UV-ligand exchange, beta2m ELISA)
In short: (§1)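 Peptide–MHC complexes made by UV-ligand exchange of a UV-cleavable peptide. Exchange yield measured by ELISA: monomers diluted 100-fold on streptavidin-coated plates, 1 h at 37°C, detected with HRP anti-β2m (2 ug/ml) and TMB, absorbance at 450 nm.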

CD8+ T cells = experiment: In vitro T-cell priming assay (aAPCs loaded with peptide/MHC and anti-CD28, pMHC multimer readout; HLA-A*02 and HLA-A*24); type: cell-based, human; conditions: in vitro immunogenicity of HLA class I peptides; peptide-specific T cells by pMHC multimer staining
Description: In order to obtain information regarding the immunogenicity of the TUMAPs of the present invention, the inventors performed investigations using an in vitro T-cell priming assay based on repeated stimulations of CD8+ T cells with artificial antigen presenting cells (aAPCs) loaded with peptide/MHC complexes and anti-CD28 antibody.
In order to perform in vitro stimulations by artificial antigen presenting cells loaded with peptide-MHC complex (pMHC) and anti-CD28 antibody, the inventors first isolated CD8+ T cells from fresh HLA-A*02 leukapheresis products via positive selection using CD8 microbeads (Miltenyi Biotec, Bergisch-Gladbach, Germany) of healthy donors obtained from the University clinics Mannheim, Germany, after informed consent.
PBMCs and isolated CD8+ lymphocytes were incubated in T-cell medium (TCM) until use consisting of RPMI-Glutamax (Invitrogen, Karlsruhe, Germany) supplemented with 10% heat inactivated human AB serum (PAN-Biotech, Aidenbach, Germany), 100 U/ml Penicillin/100 μg/ml Streptomycin (Cambrex, Cologne, Germany), 1 mM sodium pyruvate (CC Pro, Oberdorla, Germany), 20 μg/ml Gentamycin (Cambrex). 2.5 ng/ml IL-7 (PromoCell, Heidelberg, Germany) and 10 U/ml IL-2 (Novartis Pharma, Nürnberg, Germany) were also added to the TCM at this step.
Generation of pMHC/anti-CD28 coated beads, T-cell stimulations and readout was performed in a highly defined in vitro system using four different pMHC molecules per stimulation condition and 8 different pMHC molecules per readout condition.
The purified co-stimulatory mouse IgG2a anti human CD28 Ab 9.3 (Jung et al., 1987) was chemically biotinylated using Sulfo-N-hydroxysuccinimidobiotin as recommended by the manufacturer (Perbio, Bonn, Germany). Beads used were 5.6 μm diameter streptavidin coated polystyrene particles (Bangs Laboratories, Illinois, USA).
pMHC used for positive and negative control stimulations were A*0201/MLA-001 (peptide […] (SEQ ID NO. 418) from modified Melan-A/MART-1) and A*0201/DDX5-001 ([…] from DDX5, SEQ ID NO. 419), respectively.
800.000 beads/200 μl were coated in 96-well plates in the presence of 4×12.5 ng different biotin-pMHC, washed and 600 ng biotin anti-CD28 were added subsequently in a volume of 200 μl. Stimulations were initiated in 96-well plates by co-incubating 1×10^6 CD8+ T cells with 2×10^5 washed coated beads in 200 μl TCM supplemented with 5 ng/ml IL-12 (PromoCell) for 3 days at 37° C. Half of the medium was then exchanged by fresh TCM supplemented with 80 U/ml IL-2 and incubating was continued for 4 days at 37° C. This stimulation cycle was performed for a total of three times. For the pMHC multimer readout using 8 different pMHC molecules per condition, a two-dimensional combinatorial coding approach was used as previously described (Andersen et al., 2012) with minor modifications encompassing coupling to 5 different fluorochromes. Finally, multimeric analyses were performed by staining the cells with Live/dead near IR dye (Invitrogen, Karlsruhe, Germany), CD8-FITC antibody clone SK1 (BD, Heidelberg, Germany) and fluorescent pMHC multimers. For analysis, a BD LSRII SORP cytometer equipped with appropriate lasers and filters was used. Peptide specific cells were calculated as percentage of total CD8+ cells. Evaluation of multimeric analysis was done using the FlowJo software (Tree Star, Oregon, USA). In vitro priming of specific multimer+CD8+ lymphocytes was detected by comparing to negative control stimulations.
Exemplary flow cytometry results after TUMAP-specific multimer staining for 2 peptides of the invention are shown in FIGS. 3A-3B together with corresponding negative controls. Results for 5 peptides from the invention are summarized in Table12A. Exemplary flow cytometry results after TUMAP-specific multimer staining for 7 peptides of the invention are shown in FIGS. 4A-4C and FIGS. 5A-5D together with corresponding negative controls.

HLA-A*24 = experiment: MHC binding assay, UV-ligand exchange with beta2m ELISA, HLA-A*24; parameters: species or system human; conditions: binding to HLA-A*24 ranged by peptide exchange yield (UV-ligand exchange, beta2m ELISA)
In short: as §1

Substance | Peptide exchange (HLA-A*02) | Wells positive [%] (CD8+ T cells) | Peptide exchange (HLA-A*24)
9 (FLGDYVENL; listed as Homo sapiens) [compound 9] | ++ (20%-49% = ++) | + (<20% = +) | –
322 (ALVSGGVAQA; listed as Homo sapiens) [compound 322] | +++ (50%-75% = +++) | + (<20% = +) | –
17 (ILHEHHIFL; listed as Homo sapiens) [compound 17] | +++ (50%-75% = +++) | + (<20% = +) | –
2 (ALYGKLLKL; listed as Homo sapiens) [compound 2] | +++ (50%-75% = +++) | ++++ (>=70% = ++++) | –
43 (LLWAGPVTA; listed as Homo sapiens) [compound 43] | +++ (50%-75% = +++) | ++++ (>=70% = ++++) | –
103 (NYIPVKNGKQF; listed as Homo sapiens) [compound 103] | – | + (<20% = +) | +++ (50%-75% = +++)
104 (SYLTWHQQI; listed as Homo sapiens) [compound 104] | – | + (<20% = +) | ++++ (>=75% = ++++)
363 (SYAELGTTI; listed as Homo sapiens) [compound 363] | – | + (<20% = +) | ++ (20%-49% = ++)
164 (HYVPATKVF; listed as Homo sapiens) [compound 164] | – | + (<20% = +) | +++ (50%-75% = +++)
358 (YYSEVPVKL; listed as Homo sapiens) [compound 358] | – | ++++ (>=70% = ++++) | +++ (50%-75% = +++)
132 (RYPALFPVL; listed as Homo sapiens) [compound 132] | – | + (<20% = +) | ++++ (>=75% = ++++)
7 (AAAAKVPEV; listed as Homo sapiens) [compound 7] | +++ (50%-75% = +++) | + (<20% = +) | –
162 (KYTSYILAF; listed as Homo sapiens) [compound 162] | – | + (<20% = +) | ++ (20%-49% = ++)
161 (KYPDIVQQF; listed as Homo sapiens) [compound 161] | – | + (<20% = +) | +++ (50%-75% = +++)
160 (RYGDGGSSF; listed as Homo sapiens) [compound 160] | – | + (<20% = +) | +++ (50%-75% = +++)
115 (RYLNKSFVL; listed as Homo sapiens) [compound 115] | – | + (<20% = +) | +++ (50%-75% = +++)
186 (VFTTSSNIF; listed as Homo sapiens) [compound 186] | – | + (<20% = +) | ++++ (>=75% = ++++)
354 (VYNEQIRDLL; listed as Homo sapiens) [compound 354] | – | + (<20% = +) | +++ (50%-75% = +++)
98 (VFPRLHNVLF; listed as Homo sapiens) [compound 98] | – | + (<20% = +) | +++ (50%-75% = +++)
356 (NYMPGQLTI; listed as Homo sapiens) [compound 356] | – | + (<20% = +) | ++++ (>=75% = ++++)
